Laboratory results: US10202342B2, “Targeted delivery of imaging probes for in vivo cellular imaging” (University of Maryland, Baltimore, priority 2008, dated 2019)

System: cells
Assay: Intracellular retention of nitroxides (FIG. 7)
Format: cell-based
Text: The exponential life time (τ) is related to the half-life (t½): t½=0.693τ.
It is evident that nitroxide has a significant increase in retention time and approximately a 4-fold improvement over nitroxide and a 12 fold increase over nitroxide.

Compound: CC1(C)CC(CN(CC(=O)O)CC(=O)O)C(C)(C)N1[O] (stereo not drawn) [nitroxide [3], (2,2,5,5-tetramethylpyrrolidin-1-oxyl-3-ylmethyl)amine-N,N-diacetic acid]
- intracellular retention life time (single-exponential fits), comparison in words (FIG. 7, nitroxides [1]-[3] compared): longest life time within the cells
- intracellular retention time, improvement over nitroxide [2] (FIG. 7, retention within cells): ~4 fold
- intracellular retention time, increase over nitroxide [1] (FIG. 7, retention within cells): ~12 fold
